# Results taken from US20110224297A1, “Methods of administering prostratin and structural analogs thereof” (priority 2008, published 2011).
# Where two headings read alike, the source gives them in different places.
# Assays:
# [1] = Stability in PBS (phosphate buffer saline); format: physicochemical
# Experimental: (§1) Prostratin is stable in plasma and buffer as well as in the stability formulation (see below) developed for in vivo studies in mice. Stability tests for prostratin in mouse and monkey plasma were done using two concentration (1 and 10 mg/ml) and two temperatures (Room Temperature (RT) and 37° C.). The only loss of drug occurred in mouse plasma after 24 hr incubation at 37° C. This represented only 14% decrease in parent drug peak area over this time frame. Prostratin is stable in PBS (phosphate buffer saline) at pH 2 and pH 7.
# Fisher rats = assay: Single-dose range-finding study in rats; format: in vivo; conditions: for mortality (died on Day 1 or Day 2): male Fisher rats
# Experimental: (§2) A single bolus dose of prostratin (0, 0.05, 0.1, 0.2, 0.4, and 0.8 mg/kg which correspond to 0, 0.3, 0.6, 1.2, 2.4, and 4.8 mg/m^2) was administered to Fisher rats (3 males/group) to determine the maximally tolerated dose and relative drug toxicity. […] Clinical signs of toxicity included decreased activity, prostration, tremors, and altered respiratory rate (decreased in some cases, increased in others). […] In the 0.4 mg/kg dose group, ALT and AST serum levels were 2- and 3-fold higher, respectively, than group mean ALT and AST values for control rats, and potassium level was decreased in 61% of the value obtained for control group animals. […] The Maximum Tolerated Dose (MTD) in rats is between 0.2-0.4 mg/kg dose of prostratin.
# [2] = Single-dose range-finding study in rats; format: in vivo, Fisher rats; conditions: male, Fisher, rat, in vivo, intravenous; rats, single bolus dose; read-out: Maximum Tolerated Dose (MTD)
# Experimental: as §2
# [3] = In vitro metabolism in mouse liver microsomes; format: in vitro ADME
# From the text: In vitro metabolism of prostratin was investigated using mouse, rat, monkey, and human liver microsomes (Gentest). […] Attempts to identify the metabolite by LC/MS/MS were unsuccessful due to the low amounts present in the reaction mixtures (FIG. 1).
# [4] = Stability of prostratin in monkey plasma; format: in vitro ADME; conditions: 1 and 10 mg/ml, RT and 37° C.
# Experimental: as §1
# [5] = Pharmacokinetics following intravenous and oral administration to rats; format: in vivo; conditions: for Vd / half-life / bioavailability: male; for bioavailability: three male rats
# Experimental: In order to find out the best route of administration and the correct concentration of prostratin, the drug was administered as an intravenous infusion over three hours as well as a single and twice oral administration to 3 groups of rats. The goal of this experiment was to find out if greater amounts of prostratin can be administered over a longer period of time. This would enable obtaining median higher concentrations in the blood for a longer period of time that would be close to effective concentration found in in vitro studies.
# [6] = system: Salmonella typhimurium tester strains TA98, TA100, TA1535, and TA1537; assay: Salmonella/mammalian-microsome reverse mutation assay with confirmatory assay; format: cell-based; conditions: 100 to 5000 μg per plate; presence or absence of S9
# From the text: The objective of this study was to evaluate the test article, prostratin, for the ability to induce reverse mutations either in the presence or absence of mammalian microsomal enzymes at 1) the histidine locus in the genome of several strains of Salmonella typhimurium and at 2) the tryptophan locus of Escherichia coli tester strain WP2uvrA.
# The doses tested in the mutagenicity assay were selected based on the results of a dose range finding study using tester strains TA100 and WP2uvrA and ten doses of test article ranging from 6.67 to 5000 μg per plate, one plate per dose, both in the presence and absence of S9 mix.
# The tester strains used in the mutagenicity assay were Salmonella typhimurium tester strains TA98, TA100, TA1535, and TA1537 and Escherichia coli tester strain WP2uvrA. The assay was conducted with five doses of test article in both the presence and absence of S9 mix along with concurrent vehicle and positive controls using three plates per dose. The doses tested were 100, 333, 1000, 3330, and 5000 μg per plate in both the presence and absence of S9 mix. The results of the initial mutagenicity assay were confirmed in an independent experiment.
# rats = assay: DART work in rats (IV injection); format: in vivo; conditions: for maximum tolerated i.v. dose: iv bolus
# Experimental: Extrapolation was performed from the DART work that was all done in rats as an IV injection (not infusion). Infusions and injections are by definition 100% bio-available meaning it all gets in.
# The oral doses were estimated based on a maximum tolerated i.v. dose of 0.4 mg/kg from the DART work in rats, but an oral bio-availability of only 29%. Thus, the maximum tolerated i.v. dose was multiplied by three (i.e., 0.4 mg/kg times 3 equals 1.2 mg/kg as the equivalent oral dose). The purpose of the two lower oral doses (both 0.8 mg/kg, therefore a total of 1.6 mg/kg) and the infusion (0.8 mg/kg over three hours) was to see if the maximum tolerated dose could be exceeded by dividing up the oral into two times 75% the max tolerated dose or as an infusion over 3 hours.
# [7] = all three females, 1.2-mg/kg oral dose, males 2.4 mg/kg
# [8] = female Animal No. C24047, 0.8 mg/kg i.v. infusion
# [9] = female Animal No. C24048, 0.8 mg/kg i.v. infusion
# [10] = female Animal No. C24049, 0.8 mg/kg i.v. infusion
# [11] = female Animal No. C24050, 1.2-mg/kg oral dose, males 2.4 mg/kg
# [12] = female Animal No. C24055, Group 3
smiles,measurement,setting,value
"CC(=O)O[C@@]12C[C@@H](C)[C@@]3(O)[C@@H](C=C(CO)C[C@]4(O)C(=O)C(C)=C[C@@H]34)[C@@H]1C2(C)C [prostratin, 12-deoxyphorbol 13-acetate]",stability in PBS,[1]; pH 2,stable
same,stability in PBS,[1]; pH 7,stable
same,albumin (ALB) level relative to control,Fisher rats; 0.2 mg/kg dose group,88%
same,ALT serum level versus control,Fisher rats; 0.4 mg/kg dose group,2 fold
same,AST serum level versus control,Fisher rats; 0.4 mg/kg dose group,3 fold
same,albumin (ALB) level relative to control,Fisher rats; 0.4 mg/kg dose group,76%
same,potassium level relative to control,Fisher rats; 0.4 mg/kg dose group,61%
same,reversibility of adverse events,"Fisher rats; PLT, ALT, AST, ALB within normal range by day 8",reversible
same,increase in neutrophile counts,"Fisher rats; day 3, 0.4 mg/kg dose group",1.7 fold
same,decrease in platelet (PLT) counts compared to control,"Fisher rats; day 3, 0.4 and 0.2 mg/kg dose groups",62-68%
same,mortality (died on Day 1 or Day 2),Fisher rats; single bolus 0.4 mg/kg,two of the three
same,mortality (died on Day 1 or Day 2),Fisher rats; single bolus 0.8 mg/kg,3/3
same,MTD,[2],0.2 to 0.4 mg/kg
same,metabolism (time-dependent loss of parent compound),[3],greatest
same,stability in plasma,[4],stable
same,mean AUC0-1.5 relative to mean value for the males,[5]; [7],~5.5 fold
same,mean Cmax relative to mean value for the males,[5]; [7],approximately 6.2 fold
same,AUC0-2 relative to mean AUC0-2 for the males,[5]; [8],approximately 4.2 fold
same,plasma concentration at approximately 2 hours relative to mean male Cmax,[5]; [8],approximately 3.8 fold
same,AUC0-2 relative to mean AUC0-2 for the males,[5]; [9],approximately 1.4 fold
same,plasma concentration at approximately 2 hours relative to mean male Cmax,[5]; [9],approximately 1.6 fold
same,AUC0-3.083 relative to mean value for the males,[5]; [10],~2.6 fold
same,Cmax relative to mean value for the males,[5]; [10],approximately 3.7 fold
same,AUC0-1.5 relative to mean value for the males,[5]; [11],~8.2 fold
same,Cmax relative to mean value for the males,[5]; [11],approximately 8.9 fold
same,AUC0-4 relative to mean value for the males,"[5]; female Animal No. C24052, 1.2-mg/kg oral dose, males 2.4 mg/kg",approximately 9.6 fold
same,Cmax relative to mean value for the three males,"[5]; female Animal No. C24055, 1.8 mg/kg then 1.0 mg/kg oral, Group 3",approximately 6.0 fold
same,AUC0-1.5 relative to mean value for the three males,[5]; [12],~5.9 fold
same,AUC0-4 relative to mean value for the three males,[5]; [12],~8.2 fold
same,AUC0-10 relative to mean AUC0-10 for the males,"[5]; last female of Group 2, 1.2-mg/kg oral dose, males 2.4 mg/kg",approximately 6.1 fold
same,increase in exposure (mean AUC0-10) of 1.8-mg/kg BID versus single 2.4-mg/kg oral dose,"[5]; male rats, Groups 3 and 2",approximately 1.5 fold
same,Vd,"[5]; rat, plasma, iv, 0.8 mg/kg, male rats, 0.8 mg/kg i.v. infusion, read-out: mean Vss",2.22 L/kg
same,Vd,"[5]; rat, plasma, iv, 0.8 mg/kg, male rats, 0.8 mg/kg i.v. infusion, read-out: mean Vz",6.41 L/kg
same,half-life,"[5]; rat, plasma, iv, 0.8 mg/kg, male rats, after 3-hour intravenous infusion 0.8 mg/kg, read-out: mean t1/2 (converted)",149 min
same,half-life,"[5]; rat, plasma, po, 1.8 mg/kg, male Animal No. C24046, Group 3, 1.8 mg/kg BID oral, read-out: t1/2 (converted)",448 min
same,half-life,"[5]; rat, plasma, po, 1.8 mg/kg, male rats, 1.8 mg/kg BID oral, after the second dose, read-out: mean t1/2 (converted)",244 min
same,half-life,"[5]; rat, plasma, po, 2.4 mg/kg, male rats, single 2.4-mg/kg oral dose, read-out: mean t1/2 (converted)",125 min
same,bioavailability,"[5]; rat, plasma, po, 2.4 mg/kg, single 2.4-mg/kg oral dose, read-out: Bioavailability (% F), mean",13.3%
same,bioavailability,"[5]; rat, plasma, po, 2.4 mg/kg, single 2.4-mg/kg oral dose, read-out: Bioavailability (% F), range",7.7 to 23.1%
same,clearance,"[5]; rat, plasma, iv, male rats, 0.8 mg/kg i.v. infusion, read-out: mean CL (converted)",34.2 mL/min/kg
same,concentration at 4 h,"[5]; rat, plasma, male rats, 1.8 mg/kg oral, Group 3, read-out: mean plasma concentration just prior to the second oral dose at 4 hours",17.9 ng/mL
same,Cmax,"[5]; rat, plasma, male rats, 0.8-mg/kg intravenous infusion over 3 hours",159 ng/mL
same,Cmax,"[5]; rat, plasma, male rats, 1.8-mg/kg oral doses BID, following the second dose",55.1 ng/mL
same,Tmax,"[5]; rat, plasma, male rats, 1.8-mg/kg oral doses BID, read-out: time at which Cmax was observed",15 to 30 min
same,Cmax,"[5]; rat, plasma, male rats, single 2.4-mg/kg oral dose",49.7 ng/mL
same,concentration at 4 h,"[5]; rat, plasma, male rats, single 2.4-mg/kg oral dose, Group 2, read-out: mean plasma concentration at 4 hours postdose",11.5 ng/mL
same,mean number of revertants per plate,[6],did not cause a positive increase
same,oral bio-availability,rats,29%
same,maximum tolerated i.v. dose,rats,0.4 mg/kg
same,maximum tolerated i.v. dose,rats; listed as Prostratin,Dosages in Male Rats (MTD via iv bolus dose: 0.4 mg/kg)
